Measurements as given in the supplement of paper PMC10307832.

What was measured:
Experiment in all cases: relative viability (nuclei count vs DMSO), 5 days (fraction); higher = more cells survive
NCI-H727 = tested on: NCI-H727
Summary of the method: (§1)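 Lung cancer cell lines were seeded in 1536-well plates and dosed by pin tool the next day, with either a single drug or a fixed anchor-drug dose combined with five library-drug doses (not always all listed) spaced in √10 steps. Five days later, one step fixed the cells and stained their nuclei (final 0.05% Triton X-100, 1% formaldehyde, 1 ug/ml Hoechst), and nuclei were counted on 4× images. Relative viability is the nuclei count in treated wells divided by the count in vehicle wells, and each value is the median of duplicate plates.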

SW 1573 = tested on: SW 1573
Summary of the method: as §1

NCI-H1563 = tested on: NCI-H1563
Summary of the method: as §1

NCI-H23 = tested on: NCI-H23
Summary of the method: as §1

LCLC-103H = tested on: LCLC-103H
Summary of the method: as §1

NCI-H650 = tested on: NCI-H650
Summary of the method: as §1

NCI-H1944 = tested on: NCI-H1944
Summary of the method: as §1

PC-3 [JPC-3] = tested on: PC-3 [JPC-3]
Summary of the method: as §1

NCI-H1651 = tested on: NCI-H1651
Summary of the method: as §1

NCI-H460 = tested on: NCI-H460
Summary of the method: as §1

RERF-LC-KJ = tested on: RERF-LC-KJ
Summary of the method: as §1

COR-L23 = tested on: COR-L23
Summary of the method: as §1

LK-2 = tested on: LK-2
Summary of the method: as §1

A-427 = tested on: A-427
Summary of the method: as §1

PC-14 = tested on: PC-14
Summary of the method: as §1

LU99A = tested on: LU99A
Summary of the method: as §1

NCI-H1793 = tested on: NCI-H1793
Summary of the method: as §1

201T = tested on: 201T
Summary of the method: as §1

LCLC-97TM1 = tested on: LCLC-97TM1
Summary of the method: as §1

NCI-H838 = tested on: NCI-H838
Summary of the method: as §1

H3255 = tested on: H3255
Summary of the method: as §1

NCI-H2347 = tested on: NCI-H2347
Summary of the method: as §1

Structure (SMILES): COc1cc(N2CCC(C(N)=O)CC2)ccc1Nc1nc(N)c(Cl)c(Nc2ccccc2S(=O)(=O)C(C)C)n1 [HG-5-88-01] + Cc1nc(NC(=O)N2CCC[C@H]2C(N)=O)sc1-c1ccnc(C(C)(C)C(F)(F)F)c1 [Alpelisib] (partner 2 µM)
- relative viability (NCI-H727; first compound 0.04 µM): 0.517
- relative viability (NCI-H727; first compound 0.1265 µM): 0.512
- relative viability (NCI-H727; first compound 0.4 µM): 0.519
- relative viability (NCI-H727; first compound 1.265 µM): 0.329
- relative viability (NCI-H727; first compound 4 µM): 0.27
- relative viability (SW 1573; first compound 0.04 µM): 0.866
- relative viability (SW 1573; first compound 0.1265 µM): 0.571
- relative viability (SW 1573; first compound 0.4 µM): 0.866
- relative viability (SW 1573; first compound 1.265 µM): 0.632
- relative viability (SW 1573; first compound 4 µM): 0.605
- relative viability (NCI-H1563; first compound 0.04 µM): 1.05
- relative viability (NCI-H1563; first compound 0.1265 µM): 0.877
- relative viability (NCI-H1563; first compound 0.4 µM): 0.909
- relative viability (NCI-H1563; first compound 1.265 µM): 0.844
- relative viability (NCI-H1563; first compound 4 µM): 0.993
- relative viability (NCI-H23; first compound 0.04 µM): 0.832
- relative viability (NCI-H23; first compound 0.1265 µM): 0.738
- relative viability (NCI-H23; first compound 0.4 µM): 0.67
- relative viability (NCI-H23; first compound 1.265 µM): 0.847
- relative viability (NCI-H23; first compound 4 µM): 0.496
- relative viability (LCLC-103H; first compound 0.04 µM): 0.938
- relative viability (LCLC-103H; first compound 0.1265 µM): 0.968
- relative viability (LCLC-103H; first compound 0.4 µM): 0.949
- relative viability (LCLC-103H; first compound 1.265 µM): 0.907
- relative viability (LCLC-103H; first compound 4 µM): 1.2
- relative viability (NCI-H650; first compound 0.04 µM): 0.689
- relative viability (NCI-H650; first compound 0.1265 µM): 1.18
- relative viability (NCI-H650; first compound 0.4 µM): 1.04
- relative viability (NCI-H650; first compound 1.265 µM): 0.816
- relative viability (NCI-H650; first compound 4 µM): 0.8
- relative viability (NCI-H1944; first compound 0.04 µM): 0.801
- relative viability (NCI-H1944; first compound 0.1265 µM): 0.833
- relative viability (NCI-H1944; first compound 0.4 µM): 1.01
- relative viability (NCI-H1944; first compound 1.265 µM): 0.71
- relative viability (NCI-H1944; first compound 4 µM): 0.844
- relative viability (PC-3 [JPC-3]; first compound 0.04 µM): 0.965
- relative viability (PC-3 [JPC-3]; first compound 0.1265 µM): 1.04
- relative viability (PC-3 [JPC-3]; first compound 0.4 µM): 1
- relative viability (PC-3 [JPC-3]; first compound 1.265 µM): 0.971
- relative viability (PC-3 [JPC-3]; first compound 4 µM): 0.825
- relative viability (NCI-H1651; first compound 0.04 µM): 0.927
- relative viability (NCI-H1651; first compound 0.1265 µM): 1
- relative viability (NCI-H1651; first compound 0.4 µM): 0.962
- relative viability (NCI-H1651; first compound 1.265 µM): 0.906
- relative viability (NCI-H1651; first compound 4 µM): 1.2
- relative viability (NCI-H460; first compound 0.04 µM): 0.466
- relative viability (NCI-H460; first compound 0.1265 µM): 0.461
- relative viability (NCI-H460; first compound 0.4 µM): 0.461
- relative viability (NCI-H460; first compound 1.265 µM): 0.335
- relative viability (NCI-H460; first compound 4 µM): 0.304
- relative viability (RERF-LC-KJ; first compound 0.04 µM): 0.838
- relative viability (RERF-LC-KJ; first compound 0.1265 µM): 0.675
- relative viability (RERF-LC-KJ; first compound 0.4 µM): 0.935
- relative viability (RERF-LC-KJ; first compound 1.265 µM): 0.551
- relative viability (RERF-LC-KJ; first compound 4 µM): 0.874
- relative viability (COR-L23; first compound 0.04 µM): 0.774
- relative viability (COR-L23; first compound 0.1265 µM): 0.79
- relative viability (COR-L23; first compound 0.4 µM): 0.68
- relative viability (COR-L23; first compound 1.265 µM): 0.524
- relative viability (COR-L23; first compound 4 µM): 0.462
- relative viability (LK-2; first compound 0.04 µM): 1.16
- relative viability (LK-2; first compound 0.1265 µM): 1.23
- relative viability (LK-2; first compound 0.4 µM): 0.975
- relative viability (LK-2; first compound 1.265 µM): 0.632
- relative viability (LK-2; first compound 4 µM): 1.8
- relative viability (A-427; first compound 0.04 µM): 1.07
- relative viability (A-427; first compound 0.1265 µM): 1.12
- relative viability (A-427; first compound 0.4 µM): 1.16
- relative viability (A-427; first compound 1.265 µM): 1.12
- relative viability (A-427; first compound 4 µM): 0.959
- relative viability (PC-14; first compound 0.04 µM): 0.884
- relative viability (PC-14; first compound 0.1265 µM): 0.849
- relative viability (PC-14; first compound 0.4 µM): 0.882
- relative viability (PC-14; first compound 1.265 µM): 0.89
- relative viability (PC-14; first compound 4 µM): 0.851
- relative viability (LU99A; first compound 0.04 µM): 0.561
- relative viability (LU99A; first compound 0.1265 µM): 0.514
- relative viability (LU99A; first compound 0.4 µM): 0.513
- relative viability (LU99A; first compound 1.265 µM): 0.552
- relative viability (LU99A; first compound 4 µM): 0.422
- relative viability (NCI-H1793; first compound 0.1265 µM): 0.613
- relative viability (NCI-H1793; first compound 0.4 µM): 0.912
- relative viability (NCI-H1793; first compound 1.265 µM): 0.45
- relative viability (NCI-H1793; first compound 4 µM): 0.723
- relative viability (201T; first compound 0.04 µM): 0.99
- relative viability (201T; first compound 0.1265 µM): 1.06
- relative viability (201T; first compound 0.4 µM): 1.06
- relative viability (201T; first compound 1.265 µM): 0.974
- relative viability (201T; first compound 4 µM): 1.09
- relative viability (LCLC-97TM1; first compound 0.04 µM): 0.264
- relative viability (LCLC-97TM1; first compound 0.1265 µM): 0.217
- relative viability (LCLC-97TM1; first compound 0.4 µM): 0.198
- relative viability (LCLC-97TM1; first compound 1.265 µM): 0.196
- relative viability (LCLC-97TM1; first compound 4 µM): 0.142
- relative viability (NCI-H838; first compound 0.04 µM): 1
- relative viability (NCI-H838; first compound 0.1265 µM): 1.1
- relative viability (NCI-H838; first compound 0.4 µM): 0.917
- relative viability (NCI-H838; first compound 1.265 µM): 0.9
- relative viability (NCI-H838; first compound 4 µM): 0.896
- relative viability (H3255; first compound 0.04 µM): 0.714
- relative viability (H3255; first compound 0.1265 µM): 0.63
- relative viability (H3255; first compound 0.4 µM): 0.645
- relative viability (H3255; first compound 4 µM): 0.422
- relative viability (NCI-H2347; first compound 0.04 µM): 1.09
- relative viability (NCI-H2347; first compound 0.1265 µM): 1.14
- relative viability (NCI-H2347; first compound 0.4 µM): 1.1
- relative viability (NCI-H2347; first compound 1.265 µM): 0.984
- relative viability (NCI-H2347; first compound 4 µM): 0.973
